≈ marks a conversion by molar mass, not a printed value.
Columns and labels:
[1] = system: Human immunodeficiency virus 1; test: Antiviral activity against HIV-1 IIIB infected in human MT2 cells assessed as inhibition of viral growth; format: functional, organism-based; settings: Human immunodeficiency virus 1, IIIB
MT2 = test: Cytotoxicity against human MT2 cells assessed as reduction in cell growth; format: functional, cell-based
[2] = Cytotoxicity against human PBMC cells; format: toxicity, cell-based
[3] = molecular target: T1, Human immunodeficiency virus type 1 reverse transcriptase (Human immunodeficiency virus 1, UniProt Q72547); test: Inhibition of HIV-1 Reverse transcriptase
[4] = system: Human immunodeficiency virus 1; test: Antiviral activity against HIV-1 IIIB infected in human […] cells at 0.03 MOI assessed as reduction in viral replication incubated for 2 hrs by ELISA analysis; format: functional, organism-based; settings: Human immunodeficiency virus 1, IIIB, C8166, 2 h
[5] = system: Human immunodeficiency virus 1; test: Antiviral activity against HIV-1 MN infected in human […] cells at 0.03 MOI assessed as reduction in viral replication incubated for 2 hrs by ELISA analysis; format: functional, organism-based; settings: Human immunodeficiency virus 1, MN, C8166, 2 h
[6] = system: Human immunodeficiency virus 1; test: Antiviral activity against HIV-1 KM018 infected in human […] cells at 0.03 MOI assessed as reduction in viral replication incubated for 2 hrs by ELISA analysis; format: functional, organism-based; settings: Human immunodeficiency virus 1, KM018, C8166, 2 h
[7] = system: Human immunodeficiency virus 1; test: Antiviral activity against HIV-1 TC-2 infected in human […] cells at 0.03 MOI assessed as reduction in viral replication incubated for 2 hrs by ELISA analysis; format: functional, organism-based; settings: Human immunodeficiency virus 1, TC-2, C8166, 2 h
[8] = system: Human immunodeficiency virus 1; test: Antiviral activity against HIV-1 WAN infected in human […] cells at 0.03 MOI assessed as reduction in viral replication incubated for 2 hrs by ELISA analysis; format: functional, organism-based; settings: Human immunodeficiency virus 1, WAN, C8166, 2 h
[9] = system: Human immunodeficiency virus 1; test: Antiviral activity against HIV-1 A17 infected in human […] cells at 0.03 MOI assessed as reduction in viral replication incubated for 2 hrs by ELISA analysis; format: functional, organism-based; settings: Human immunodeficiency virus 1, A17, C8166, 2 h
C8166 = test: Cytotoxicity against human C8166 cells assessed as reduction in cell growth measured after 3 days by MTT assay; format: functional; settings: C8166, 72 h, time 3 day
MT4 = test: Cytotoxicity against human MT4 cells assessed as reduction in cell growth measured after 3 days by MTT assay; format: functional; settings: MT4, 72 h, time 3 day
[10] = Cytotoxicity against human PBMC cells assessed as reduction in cell growth measured after 3 days by MTT assay; format: functional; settings: 72 h, time 3 day
[11] = system: Human immunodeficiency virus 1; test: Antiviral activity against wild type HIV-1 NL4-3 harboring reverse transcriptase infected in human C8166 cells assessed as reduction in virus-induced cytopathic effect measured for 2 hrs by ELISA analysis; format: functional, organism-based; settings: Human immunodeficiency virus 1, NL4-3, C8166, 2 h
[12] = system: Human immunodeficiency virus 1; test: Antiviral activity against HIV-1 NL4-3 harboring reverse transcriptase K103N mutant infected in human C8166 cells assessed as reduction in virus-induced cytopathic effect measured for 2 hrs by ELISA analysis; format: functional, organism-based; settings: Human immunodeficiency virus 1, NL4-3, C8166, 2 h
[13] = system: Human immunodeficiency virus 1; test: Antiviral activity against HIV-1 NL4-3 harboring reverse transcriptase V106A mutant infected in human C8166 cells assessed as reduction in virus-induced cytopathic effect measured for 2 hrs by ELISA analysis; format: functional, organism-based; settings: Human immunodeficiency virus 1, NL4-3, C8166, 2 h
[14] = system: Human immunodeficiency virus 1; test: Antiviral activity against HIV-1 NL4-3 harboring reverse transcriptase V106M mutant infected in human C8166 cells assessed as reduction in virus-induced cytopathic effect measured for 2 hrs by ELISA analysis; format: functional, organism-based; settings: Human immunodeficiency virus 1, NL4-3, C8166, 2 h
[15] = system: Human immunodeficiency virus 1; test: Antiviral activity against HIV-1 NL4-3 harboring reverse transcriptase V108I mutant infected in human C8166 cells assessed as reduction in virus-induced cytopathic effect measured for 2 hrs by ELISA analysis; format: functional, organism-based; settings: Human immunodeficiency virus 1, NL4-3, C8166, 2 h
[16] = system: Human immunodeficiency virus 1; test: Antiviral activity against HIV-1 NL4-3 harboring reverse transcriptase Y181C mutant infected in human C8166 cells assessed as reduction in virus-induced cytopathic effect measured for 2 hrs by ELISA analysis; format: functional, organism-based; settings: Human immunodeficiency virus 1, NL4-3, C8166, 2 h
[17] = Solubility in water; format: physicochemical
[18] = system: Human immunodeficiency virus 1; test: Antiviral activity against HIV1 harboring Y181C mutant infected in human MT4 cells; format: functional, organism-based; settings: Human immunodeficiency virus 1, MT4
[19] = system: Human immunodeficiency virus 1; test: Antiviral activity against HIV-1 harboring L100I mutant infected in human MT4 cells assessed as virus-induced cytopathicity treated for 5 days by MTT assay; format: functional, organism-based; settings: Human immunodeficiency virus 1, MT4, 120 h
[20] = system: Human immunodeficiency virus 1; test: Antiviral activity against HIV1 harboring Y188H mutant infected in MT4 cells assessed as virus-induced cytopathicity treated for 5 days by MTT assay; format: functional, organism-based; settings: Human immunodeficiency virus 1, MT4, 120 h
[21] = system: Human immunodeficiency virus 1; test: Antiviral activity against HIV-1 IIIB infected in human C8166 cells assessed as reduction in virus-induced cytopathic effect incubated for 3 days by MTT assay; format: functional, organism-based; settings: Human immunodeficiency virus 1, IIIB, C8166, 72 h
[22] = system: Human immunodeficiency virus 1; test: Antiviral wild type activity against HIV-1 IIIB infected in human C8166 cells assessed as reduction in virus-induced cytopathic effect incubated for 3 days by MTT assay; format: functional, organism-based; settings: Human immunodeficiency virus 1, IIIB, C8166, 72 h
[23] = system: Human immunodeficiency virus 1; test: Antiviral wild type activity against HIV-1 Ba-L infected in human TZM-bl cells assessed as reduction in virus-induced cytopathic effect incubated for 3 days by MTT assay; format: functional, organism-based; settings: Human immunodeficiency virus 1, Ba-L, 72 h
[24] = system: Human immunodeficiency virus 1; test: Antiviral wild type activity against HIV-1 TC-1 infected in human PBMC cells assessed as reduction in virus-induced cytopathic effect incubated for 3 days by MTT assay; format: functional, organism-based; settings: Human immunodeficiency virus 1, TC-1, PBMC, 72 h
[25] = system: Human immunodeficiency virus 1; test: Antiviral wild type activity against HIV-1 WAN infected in human PBMC cells assessed as reduction in virus-induced cytopathic effect incubated for 3 days by MTT assay; format: functional, organism-based; settings: Human immunodeficiency virus 1, WAN, 72 h
[26] = system: Human immunodeficiency virus 1; test: Antiviral […] activity against HIV-1 A17 harboring reverse transcriptase K103N/Y181C double mutant infected in human C8166 cells assessed as reduction in virus-induced cytopathic effect incubated for 3 days by MTT assay; format: functional, organism-based; settings: Human immunodeficiency virus 1, A17, C8166, 72 h
[27] = system: Human immunodeficiency virus 1; test: Antiviral activity against wild type HIV-1 NL4-3 infected in human MT4 cells assessed as reduction in viral replication measured for 72 hrs by ELISA analysis; format: functional, organism-based; settings: Human immunodeficiency virus 1, NL4-3, MT4, 72 h
[28] = molecular target: T1, Human immunodeficiency virus type 1 reverse transcriptase; test: Binding affinity to wild type HIV-1 reverse transcriptase assessed as inhibition constant
Reverse transcriptase = Reverse transcriptase (Human immunodeficiency virus 1, UniProt Q9WKE8, K103N); test: Binding affinity to HIV-1 reverse transcriptase K103N mutant assessed as inhibition constant
Hepatitis B virus = test: Antiviral activity against Hepatitis B virus infected in human HepG2.2.15 cells assessed as inhibition of HBV DNA production by qRT-PCR analysis; format: functional, organism-based
Staphylococcus aureus = test: Antibacterial activity against Staphylococcus aureus; format: functional
Bacillus subtilis = test: Antibacterial activity against Bacillus subtilis; format: functional
dengue virus type 1 = test: Antiviral activity Dengue virus 1; format: functional, organism-based
dengue virus type 2 = test: Antiviral activity Dengue virus 2; format: functional, organism-based
dengue virus type 3 = test: Antiviral activity Dengue virus 3; format: functional, organism-based
dengue virus type 4 = test: Antiviral activity Dengue virus 4; format: functional, organism-based
[29] = Cytotoxicity against African green monkey Vero cells; format: toxicity, cell-based; settings: chlorocebus sabaeus
[30] = Inhibition of HIV-1 Reverse transcriptase G190S mutant; parameters: species or system Human immunodeficiency virus 1
Rubella virus = test: Antiviral activity against Rubella virus infected in Vero cells assessed as reduction in viral growth incubated for 96 hrs by plaque assay; format: functional, organism-based
Sindbis virus = test: Antiviral activity against Sindbis virus infected in Vero cells assessed as reduction in viral growth incubated for 96 hrs by plaque assay; format: functional, organism-based
[31] = system: Vesicular stomatitis virus; test: Antiviral activity against Vesicular stomatitis virus infected in Vero cells assessed as inhibition of cytopathic effect measured after 96 hrs by fluorescence based CPE reduction method; format: functional, organism-based
[32] = system: Human immunodeficiency virus 1; test: Antiviral activity against HIV-1 harboring L100I mutant infected in human MT4 cells assessed as […]; format: functional, organism-based; settings: Human immunodeficiency virus 1, MT4
[33] = system: Human immunodeficiency virus 1; test: Antiviral activity against HIV1 harboring K103N mutant infected in MT4 cells; format: functional, organism-based; settings: Human immunodeficiency virus 1, MT4

## Nc1cc(Cl)nc(SCc2ccccc2)n1
[1]
  EC50: 400 nM
MT2
  IC50: > 16000 nM
[2]
  IC50: > 16000 nM

## CCc1c(CC2CCCCC2)nc(SCC(=O)c2ccccc2)[nH]c1=O
[3]
  IC50: 440 nM
[4]
  EC50: 2 nM
[5]
  EC50: 5 nM
[6]
  EC50: 41 nM
[7]
  EC50: 8 nM
[8]
  EC50: 25 nM
[9]
  EC50: 38900 nM
C8166
  CC50: > 100000 nM
MT4
  CC50: > 100000 nM
[10]
  CC50: > 100000 nM
[11]
  EC50: 7 nM
[12]
  EC50: 709 nM
[13]
  EC50: 734 nM
[14]
  EC50: 172 nM
[15]
  EC50: 12 nM
[16]
  EC50: 241 nM
[17]
  solubility: 4 µg/mL (≈ 10.8 µM)

## C[C@H](Sc1nc(N)cc(Cl)n1)c1cc2ccoc2cn1
[18]
  EC50: 179 nM
[19]
  EC50: 39 nM
[20]
  EC50: 77 nM

## CCc1c(CC2CCCCC2)nc(SCc2cc(-c3ccc(O)cc3)[nH]n2)[nH]c1=O
[21]
  EC50: 3 nM
[22]
  EC50: 4 nM
[23]
  EC50: 48 nM
[24]
  EC50: 14 nM
[25]
  EC50: 56 nM
[26]
  EC50: 2770 nM

## Cc1c(C(C)c2c(F)cccc2Cl)nc(N(C)C)[nH]c1=O (stereo not drawn)
[27]
  EC50: 3 nM
[28]
  Ki: 17 nM
Reverse transcriptase
  Ki: 750 nM

## O=c1[nH]c(SC2O[C@H](CO)[C@H](O)[C@@H](O)[C@@H]2O)nc(Cc2ccccc2)c1Cc1ccccc1 (stereo partly drawn)
Hepatitis B virus
  EC50: 200 nM

## Cc1ccc(-c2nc(S/C(=N/Nc3ccc(O)cc3)C(=O)c3ccc(Br)cc3)[nH]c(=O)c2C#N)cc1
Staphylococcus aureus
  MIC: 0.19 µg/mL (≈ 0.339 µM)
Bacillus subtilis
  MIC: 1.17 µg/mL (≈ 2.09 µM)

## CCc1c(CC2CCCCC2)nc(SCc2n[nH]c(-c3ccc(F)c(F)c3)c2Cl)[nH]c1=O
Dengue virus type 1
  EC50: 1470 nM
Dengue virus type 2
  EC50: 9230 nM
Dengue virus type 3
  EC50: 7080 nM
Dengue virus type 4
  EC50: 8910 nM
[29]
  CC50: > 200000 nM

## N#Cc1c(-c2ccc(Br)cc2)nc(S/C(=N/Nc2ccc(O)cc2)C(=O)c2ccc(Br)cc2)[nH]c1=O
Staphylococcus aureus
  MIC: 1.17 µg/mL (≈ 1.87 µM)
Bacillus subtilis
  MIC: 2.34 µg/mL (≈ 3.74 µM)

## Cc1cc(/C=C/C#N)cc(C)c1Nc1ncnc(Nc2ccc(C#N)cc2)n1
[30]
  IC50: 0.1 nM

## CCN(CC)CCc1cc(=O)[nH]c(SC)n1
Rubella virus
  IC50: 3.9 µg/mL (≈ 16.2 µM)
Sindbis virus
  IC50: 44.3 µg/mL (≈ 184 µM)
[31]
  IC50: 29 µg/mL (≈ 120 µM)

## O=c1cc(Cc2ccccc2)nc(NCCCCO)[nH]1
[32]
  EC50: 525000 nM
[33]
  EC50: 840000 nM

Source: ChEMBL document CHEMBL6115028, “An Amazing 30-Year Journey around the DABO Family: A Medicinal Chemistry Lesson on a Versatile Class of Non-nucleoside HIV-1 Reverse Transcriptase Inhibitors” (J Med Chem, 2025)
